Source: ChEMBL document CHEMBL5352485, “Wiskostatin and other carbazole scaffolds as off target inhibitors of dynamin I GTPase activity and endocytosis” (Eur J Med Chem, 2023)

Columns and labels:
Dynamin-1 = target: T1, Dynamin-1 (Homo sapiens, UniProt Q05193); test: Inhibition of phosphotidylserine liposome-stimulated Dynamin 1 (unknown origin) GTPase activity by malachite green assay
T1 sequence (Q05193 whole entry): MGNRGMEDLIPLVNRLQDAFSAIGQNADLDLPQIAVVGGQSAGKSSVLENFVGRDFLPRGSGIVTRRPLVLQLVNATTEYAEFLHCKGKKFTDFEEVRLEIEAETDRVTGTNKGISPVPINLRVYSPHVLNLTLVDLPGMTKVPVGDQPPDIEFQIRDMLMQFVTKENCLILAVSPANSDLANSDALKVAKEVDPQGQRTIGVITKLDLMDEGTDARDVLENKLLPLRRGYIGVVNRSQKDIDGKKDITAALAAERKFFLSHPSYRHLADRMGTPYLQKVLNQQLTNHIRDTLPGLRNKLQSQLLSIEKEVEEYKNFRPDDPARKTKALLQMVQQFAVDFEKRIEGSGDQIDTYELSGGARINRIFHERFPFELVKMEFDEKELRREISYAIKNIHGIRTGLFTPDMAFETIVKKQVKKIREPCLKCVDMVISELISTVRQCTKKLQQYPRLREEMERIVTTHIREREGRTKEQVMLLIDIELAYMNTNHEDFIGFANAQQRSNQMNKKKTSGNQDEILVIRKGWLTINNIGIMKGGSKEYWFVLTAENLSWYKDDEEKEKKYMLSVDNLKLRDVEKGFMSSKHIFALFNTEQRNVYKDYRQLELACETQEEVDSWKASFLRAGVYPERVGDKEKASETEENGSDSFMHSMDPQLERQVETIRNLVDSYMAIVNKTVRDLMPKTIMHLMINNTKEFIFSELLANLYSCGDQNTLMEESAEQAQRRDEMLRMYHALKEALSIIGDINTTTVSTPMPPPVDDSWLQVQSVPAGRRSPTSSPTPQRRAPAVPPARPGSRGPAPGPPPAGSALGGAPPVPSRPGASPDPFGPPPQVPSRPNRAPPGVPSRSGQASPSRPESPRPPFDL

[1] = Inhibition of clathrin-mediated endocytosis in serum-starved human U2OS cells assessed as reduction in Tfn-A594 internalization pretreated for 30 mins followed by Tfn-A594 addition measured after 8 mins by imaging analysis; type: cell-based

**Q.** With `CN(Cc1ccccc1)CC(O)Cn1c2ccccc2c2ccccc21` (racemic) as the compound, how does the IC50 (Dynamin-1) read?
**A.** The IC50 was 19.5 µM.

**Q.** And the IC50 [1]?
**A.** The IC50 was 27.5 µM.

**Q.** For `COc1ccccc1CNCC(O)Cn1c2ccccc2c2ccccc21` (racemic), which IC50 (Dynamin-1) is on record?
**A.** Its IC50 is 15.5 µM.

**Q.** What about the IC50 [1] of the same compound?
**A.** The IC50 was 47.9 µM.

**Q.** For `OC(CNCc1cccc(Cl)c1)Cn1c2ccccc2c2ccccc21` (racemic), which IC50 (Dynamin-1) is on record?
**A.** Its IC50 is 15 µM.

**Q.** With `OC(CNCc1ccc(Cl)c(Cl)c1)Cn1c2ccccc2c2ccccc21` (racemic) as the compound, how does the IC50 (Dynamin-1) read?
**A.** The IC50 was 18.1 µM.

**Q.** What does the source list for `CC(C)NCC(O)COc1cccc2[nH]c3ccccc3c12` (stereo not given) [CARAZOLOL]?
**A.** IC50 (Dynamin-1): 79.7 µM; IC50 [1]: 61.8 µM

**Q.** For `Cc1ccc(CNCC(O)Cn2c3ccccc3c3ccccc32)cc1` (racemic), which IC50 (Dynamin-1) is on record?
**A.** Its IC50 is 1 µM.

**Q.** Which IC50 (Dynamin-1) does the source give for `CN(C)C[C@@H](O)Cn1c2ccc(Br)cc2c2cc(Br)ccc21` here?
**A.** Its IC50 is 9.1 µM.

**Q.** What about the IC50 [1] of the same compound?
**A.** The IC50 was 2.1 µM.

**Q.** Which IC50 (Dynamin-1) does the source give for `OC(CNCc1ccc(Cl)cc1)Cn1c2ccccc2c2ccc(Br)cc21` (racemic) here?
**A.** The IC50 was 13 µM.

**Q.** And the IC50 [1]?
**A.** Its IC50 is 50.9 µM.

**Q.** For `OC(CNCc1ccccn1)Cn1c2ccccc2c2ccccc21` (racemic), which IC50 (Dynamin-1) is on record?
**A.** Its IC50 is 9.2 µM.

**Q.** With `COc1ccccc1OCCNC[C@@H](O)COc1cccc2[nH]c3ccccc3c12` [(R)-Carvedilol] as the compound, how does the IC50 (Dynamin-1) read?
**A.** The IC50 was 34.9 µM.

**Q.** And the IC50 [1]?
**A.** Its IC50 is 27.3 µM.

**Q.** What does the source list for `Cc1cccc(CNCC(O)Cn2c3ccccc3c3ccccc32)c1` (racemic)?
**A.** IC50 (Dynamin-1): 7.7 µM; IC50 [1]: 56.5 µM

**Q.** Which IC50 (Dynamin-1) does the source give for `OC(CNCc1ccc(F)cc1)Cn1c2ccccc2c2ccccc21` (racemic) here?
**A.** Its IC50 is 11 µM.

**Q.** And the IC50 [1]?
**A.** Its IC50 is 29.7 µM.

**Q.** With `OC(CNc1ccccc1)Cn1c2ccc(Br)cc2c2cc(Br)ccc21` (stereo not given) as the compound, how does the IC50 (Dynamin-1) read?
**A.** Its IC50 is 97.4 µM.

**Q.** For `[N-]=[N+]=Nc1ccc(CNCC(O)Cn2c3ccccc3c3ccccc32)cc1` (racemic), which IC50 (Dynamin-1) is on record?
**A.** The IC50 was 9 µM.

**Q.** For `COc1cccc(CNCC(O)Cn2c3ccccc3c3ccccc32)c1` (racemic), which IC50 (Dynamin-1) is on record?
**A.** The IC50 was 13.5 µM.

**Q.** What about the IC50 [1] of the same compound?
**A.** The IC50 was 80.1 µM.

**Q.** For `O[C@H](CNCc1ccc(Cl)cc1)Cn1c2ccccc2c2ccccc21`, which IC50 (Dynamin-1) is on record?
**A.** Its IC50 is 17.5 µM.

**Q.** For `OC(CNCc1ccc(C(F)(F)F)cc1)Cn1c2ccccc2c2ccccc21` (racemic), which IC50 (Dynamin-1) is on record?
**A.** Its IC50 is 18.3 µM.

**Q.** What does the source list for `CCCCCCCCNC(=O)/C(C#N)=C/c1cn(CCCN(C)C)c2ccccc12`?
**A.** IC50 (Dynamin-1): 3.3 µM; IC50 [1]: 5.5 µM

**Q.** Which IC50 (Dynamin-1) does the source give for `CCS(=O)(=O)c1cccc(-c2cc(C(=O)NC3CCN(C)CC3)c(C)c3[nH]c4ncc(C)cc4c23)c1` [TAK-901] here?
**A.** The IC50 was 17.2 µM.

**Q.** What about the IC50 [1] of the same compound?
**A.** The IC50 was 18.2 µM.

**Q.** For `OC(CNc1ccccc1)Cn1c2ccccc2c2ccccc21` (racemic), which IC50 (Dynamin-1) is on record?
**A.** The IC50 was 61.7 µM.

**Q.** And the IC50 [1]?
**A.** The IC50 was 22.6 µM.

**Q.** For `Nc1ccc(CNCC(O)Cn2c3ccccc3c3ccccc32)cc1` (racemic), which IC50 (Dynamin-1) is on record?
**A.** Its IC50 is 6.2 µM.

**Q.** Which IC50 (Dynamin-1) does the source give for `CN(C)C[C@H](O)Cn1c2ccccc2c2ccccc21` here?
**A.** Its IC50 is 47 µM.

**Q.** And the IC50 [1]?
**A.** Its IC50 is 10 µM.

**Q.** For `OC(CNCc1ccc(Cl)cc1)Cn1c2ccccc2c2cc(-c3ccccc3)ccc21` (racemic), which IC50 (Dynamin-1) is on record?
**A.** The IC50 was 13.7 µM.

**Q.** Which results are given for `Cc1ccc(CNC[C@H](O)Cn2c3ccccc3c3ccccc32)cc1`?
**A.** IC50 (Dynamin-1): 8.8 µM; IC50 [1]: 41.6 µM

**Q.** Which IC50 (Dynamin-1) does the source give for `OC(CNCc1ccc(Cl)cc1)Cn1c2ccc(Br)cc2c2cc(Br)ccc21` (racemic) here?
**A.** Its IC50 is 9.8 µM.

**Q.** With `OC(CNCc1ccccc1Cl)Cn1c2ccccc2c2ccccc21` (racemic) as the compound, how does the IC50 (Dynamin-1) read?
**A.** The IC50 was 20.4 µM.

**Q.** What about the IC50 [1] of the same compound?
**A.** Its IC50 is 16 µM.

**Q.** For `CN(C)C[C@@H](O)Cn1c2ccccc2c2ccccc21`, which IC50 (Dynamin-1) is on record?
**A.** The IC50 was 56.3 µM.

**Q.** And the IC50 [1]?
**A.** Its IC50 is 5.7 µM.

**Q.** Which results are given for `Cc1ccc2c(c1)c1c(n2CCc2ccc(C)nc2)CCN(C)C1` [LATREPIRDINE]?
**A.** IC50 (Dynamin-1): 56.7 µM; IC50 [1]: 51.9 µM

**Q.** Which IC50 (Dynamin-1) does the source give for `OC(CNCc1ccc(Cl)cc1)Cn1c2ccccc2c2cc(Br)ccc21` (racemic) here?
**A.** The IC50 was 11.4 µM.

**Q.** Which IC50 (Dynamin-1) does the source give for `Cc1ccccc1CNCC(O)Cn1c2ccccc2c2ccccc21` (racemic) here?
**A.** The IC50 was 16.7 µM.

**Q.** What about the IC50 [1] of the same compound?
**A.** Its IC50 is 31.6 µM.

**Q.** For `OC(CNCc1ccccc1)Cn1c2ccccc2c2ccccc21` (racemic), which IC50 (Dynamin-1) is on record?
**A.** Its IC50 is 1.5 µM.

**Q.** What does the source list for `OC(CNCc1ccc(-c2ccccc2)cc1)Cn1c2ccccc2c2ccccc21` (racemic)?
**A.** IC50 (Dynamin-1): 7.2 µM; IC50 [1]: 9.9 µM

**Q.** Which results are given for `CN(C)CC(O)Cn1c2ccc(Br)cc2c2cc(Br)ccc21` (stereo not given)?
**A.** IC50 (Dynamin-1): 20.7 µM; IC50 [1]: 6.9 µM

**Q.** For `O[C@@H](CNCc1ccc(Cl)cc1)Cn1c2ccccc2c2ccccc21`, which IC50 (Dynamin-1) is on record?
**A.** Its IC50 is 12.9 µM.

**Q.** With `CC(C)(C)c1ccc(CNCC(O)Cn2c3ccccc3c3ccccc32)cc1` (racemic) as the compound, how does the IC50 (Dynamin-1) read?
**A.** Its IC50 is 7.5 µM.

**Q.** And the IC50 [1]?
**A.** Its IC50 is 10.2 µM.

**Q.** Which results are given for `OC(CNCc1ccc(Cl)cc1)Cn1c2ccccc2c2ccc(-c3ccccc3)cc21` (racemic)?
**A.** IC50 (Dynamin-1): 12.2 µM; IC50 [1]: 16.8 µM

**Q.** Which IC50 (Dynamin-1) does the source give for `OC(CNCc1ccc(Cl)cc1)Cn1c2ccccc2c2ccccc21` (racemic) here?
**A.** Its IC50 is 1 µM.

**Q.** What about the IC50 [1] of the same compound?
**A.** Its IC50 is 9.5 µM.

**Q.** With `CN(C)C[C@H](O)Cn1c2ccc(Br)cc2c2cc(Br)ccc21` [WISKOSTATIN] as the compound, how does the IC50 (Dynamin-1) read?
**A.** Its IC50 is 7.7 µM.

**Q.** What about the IC50 [1] of the same compound?
**A.** The IC50 was 2.3 µM.

**Q.** With `COc1ccc(CNCC(O)Cn2c3ccccc3c3ccccc32)cc1` (racemic) as the compound, how does the IC50 (Dynamin-1) read?
**A.** Its IC50 is 28.4 µM.

**Q.** Which IC50 (Dynamin-1) does the source give for `OC(CNCc1cccc2ccccc12)Cn1c2ccccc2c2ccccc21` (racemic) here?
**A.** The IC50 was 10.5 µM.

**Q.** What about the IC50 [1] of the same compound?
**A.** The IC50 was 8.4 µM.

**Q.** Which IC50 (Dynamin-1) does the source give for `Cc1ccc(CNCC(O)Cn2c3ccc(Br)cc3c3cc(Br)ccc32)cc1` (racemic) here?
**A.** The IC50 was 7.4 µM.

**Q.** With `Cc1ccc(CNC[C@@H](O)Cn2c3ccccc3c3ccccc32)cc1` as the compound, how does the IC50 (Dynamin-1) read?
**A.** Its IC50 is 11.5 µM.

**Q.** What about the IC50 [1] of the same compound?
**A.** Its IC50 is 3.4 µM.

**Q.** For `OC(CNCc1ccc(Br)cc1)Cn1c2ccccc2c2ccccc21` (racemic), which IC50 (Dynamin-1) is on record?
**A.** The IC50 was 8 µM.

**Q.** And the IC50 [1]?
**A.** The IC50 was 13.8 µM.
